Consider six compounds from patent publication US20170029531A1, “INHIBITION OF LACTATE DEHYDROGENASE 5 (LDH-5) BINDING, INCORPORATION, INTERNALIZATION AND/OR ENDOCYTOSIS TO IMMUNE CELLS” (Seattle Children's Hospital (dba Seattle Children's …, priority 2014, published 2017).

The test system of assay [1] is primary human NK cells. Kind of assay: NKG2D expression and CD107a degranulation of primary human NK cells after incubation with LDH or lactate. The class given is cell-based. The settings on record: LDH 50 ug/mL or lactate 20 mM; 12 hour (NKG2D, NKp46) or 6 hour after IL-2 (CD107a). The source says:
FIG. 2. Biochemical purification of tumor-derived Lactate Dehydrogenase, expression in glioma cell lines and verification of LDH-mediated induction of NKG2D ligands on monocytes. (Panel A) Protein purification strategy. […] of U87 glioblastoma cell line supernatant were subjected to ammonium sulfate precipitation. Active fractions were passed over a phenyl Sepharose column and active fractions were then subjected to size exclusion (Superdex 200), followed by ion exchange (MonoS) before Mass Spectroscopy (MS) analysis. (Panel B) Following separation by chromatography, fractions were dialyzed into PBS and cultured with MHD (healthy monocytes) for 18 hours. Whole cell mRNA was reverse transcribed, and induction of MICB and ULBP-1 was analyzed relative to media alone controls. […] (Panel C) mRNA isolated from PBMC of healthy donors, 293T cells (as negative controls), and U87, U251, and SF767 glioma cell lines were analyzed for expression of LDHA and LDHB by qPCR. (Panel D) A 1:10 dilution of fresh, unfrozen glioblastoma cell line supernatants was analyzed for total LDH enzymatic activity and expressed as OD 495 nm. […] Eighteen hours later, mRNA was isolated and analyzed for MICA, MICB, and ULBP-1 by qPCR. […] Eighteen hours later, mRNA was isolated and analyzed for MICA, MICB and ULBP-1 by qPCR. […] Eighteen hours later, MICB (black bars) and ULBP-1 (gray bars) were measured by qPCR. […]

The target in assay [2] is UL16-binding protein 1 (ULBP1) on monocytes (human) (UniProt Q9BZM6). Kind of assay: cell-based or functional assay.
Sequence of UniProt Q9BZM6 (Q9BZM6 26-216): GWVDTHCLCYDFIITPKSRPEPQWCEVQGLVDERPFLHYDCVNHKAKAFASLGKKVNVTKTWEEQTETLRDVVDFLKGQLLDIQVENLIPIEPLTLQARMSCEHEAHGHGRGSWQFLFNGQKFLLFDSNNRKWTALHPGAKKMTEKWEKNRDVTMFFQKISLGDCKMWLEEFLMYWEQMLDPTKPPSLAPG
The target of assay [3] is MHC class I polypeptide-related sequence B (MICB) on monocytes (human) (UniProt Q29980). The assay can be described thus: cell-based or functional assay.
Sequence of UniProt Q29980 (Q29980 23-383): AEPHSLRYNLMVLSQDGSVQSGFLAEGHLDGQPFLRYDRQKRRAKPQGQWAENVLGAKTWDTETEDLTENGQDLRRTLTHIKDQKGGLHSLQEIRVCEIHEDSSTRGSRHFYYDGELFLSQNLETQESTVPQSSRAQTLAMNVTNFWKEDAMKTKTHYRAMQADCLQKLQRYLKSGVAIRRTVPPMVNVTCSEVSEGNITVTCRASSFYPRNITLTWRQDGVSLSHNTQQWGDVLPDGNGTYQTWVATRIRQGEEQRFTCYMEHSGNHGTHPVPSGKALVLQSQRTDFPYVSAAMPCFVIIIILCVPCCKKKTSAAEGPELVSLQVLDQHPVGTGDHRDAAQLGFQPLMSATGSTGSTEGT
For assay [4], the system named is U87. Kind of assay: U87 uptake of fluorescently labeled LDH5, flow cytometry. It is filed as cell-based. As to the method:
FIG. 26. U87 uptake. […] Fluorescently labeled LDH5 and Transferrin were pre-incubated with anti-LDHa at equilmolar concentrations. The antibody protein combination were then fed to U87 for 30 min. Cells were then trypsinized, acid washed, fixed in 2% PFA. Fluorescence intensity was obtained by flow cytometry. Anti-LDHa blocks uptake by approximately 50%, but has no effect on Transferrin uptake. N=2, p<0.05.
FIG. 27. U87 uptake. […] Fluorescently labeled LDH5 and Transferrin were incubated with U87 in the presence or absence of 20 mM oxamate for 30 min. Cells were then trypsinized, acid washed, fixed in 2% PFA. Fluorescence intensity was obtained by flow cytometry. N=1.
FIG. 28. U87 uptake. […] Fluorescently labeled LDH5 and Transferrin were incubated with U87 in the presence or absence of equimolar MDH for 30 min. Cells were then trypsinized, acid washed, fixed in 2% PFA. Fluorescence intensity was obtained by flow cytometry. N=1.
FIG. 29. U87 uptake. […] Cells were pre-incubated with 30 uM Dyngo 4a or 18 uM Pitstop. Fluorescently labeled LDH5 was then added for 30 min. Cells were then trypsinized, acid washed, fixed in 2% PFA. Fluorescence intensity was obtained by flow cytometry.
Experimental wells were pulsed with 10 ug/mL LDH-A488 for 30 min or 24 hours as indicated (control wells received no LDH) at 37° C. Cells were treated for 2 min with 0.5M acetic acid+150 mM NaCl (pH 2.5), followed by 4 subsequent washes in RPMI+10% FBS. […] (See FIGS. 26-29).

In assay [5] the test system is monocytes, or monocyte derived macrophages. Kind of assay: Uptake of fluorescently labeled LDH5 by monocytes / monocyte derived macrophages (CD14+ cells), flow cytometry. It is filed as cell-based, human. Conditions: monocyte derived macrophages pre-incubated with 25 uM chlorpromazine for 30 min, labeled LDH5 for a further 30 min; N=2. As to the method: FIG. 23. […] Fluorescently labeled LDH5 was pre-incubated with anti-LDHa at equilmolar concentrations. The antibody protein combination was then fed to monocytes, or monocyte derived macrophages for 30 min. Cells were then trypsinized, acid washed, fixed in 2% PFA. Fluorescence intensity was obtained by flow cytometry. Anti-LDHa blocks uptake by approximately 50%. Macrophages N=1, Monocytes N=2.
FIG. 24. […] Monocyte derived macrophages were pre-incubated with 25 uM chlorpromazine for 30 min. Fluorescently labeled LDH5 was then added for an additional 30 min. Cells were then trypsinized, acid washed, fixed in 2% PFA. Fluorescence intensity was obtained by flow cytometry. N=2
FIG. 25. […] Fluorescently labeled LDH5 was incubated with U87 in the presence or absence of equimolar MDH for 30 min. Cells were then trypsinized, acid washed, fixed in 2% PFA. Fluorescence intensity was obtained by flow cytometry. N=2.
In an experiment utilizing the antibody with LDH5 in serum, the LDH5 complexed to the antibody was added to macrophages and to a sample of monocytes. […] Monocyte derived macrophages were pre-incubated with 25 uM chlorpromazine for 30 min. […] Fluorescence intensity was obtained by flow cytometry. […] Fluorescence intensity was obtained by flow cytometry. Cells exposed to LDH5-A488 were compared to cells without and amount of fluorescence was determined to represent amount of LDH5 inside of the cell.

For assay [6], the system named is Tumor cells. Kind of assay: LDH-5 internalization by tumor cells, flow cytometry (FIGS. 16-19). It is filed as cell-based. Conditions: sodium oxamate, FIG. 18. As for the experimental part: FIG. 17. Tumor cells internalize LDH-5, which can be reduced by antibody blocking. 10 ug/ml of LDH5 specific monoclonal antibody was added to cells 1 hour prior to culture with LDH5 as described above and evaluated for internalization using flow cytometry to evaluate fluorescence.
FIG. 19. LDH-5 internalization is receptor mediated and Clathrin dependent. LDH5 internalization is reduced with receptor mediated endocytosis inhibitors.
LDH5 internalization is reduced with receptor mediated endocytosis inhibitors. This supports that internalization is mediated by a specific receptor, as opposite to bulk phagocytosis.

The test system of assay [7] is monocytes from healthy donors. Kind of assay: NKG2D ligand (MICA, MICB, ULBP-1) mRNA induction in monocytes from healthy donors (MHD), qPCR. It is filed as cell-based, human. The settings on record: U87 supernatant with sodium oxamate (100 mM in FIG. 2 panel E; 20 mM in the LDH inhibition method); 18 h; qPCR. The source says:
FIG. 2. Biochemical purification of tumor-derived Lactate Dehydrogenase, expression in glioma cell lines and verification of LDH-mediated induction of NKG2D ligands on monocytes. (Panel A) Protein purification strategy. […] of U87 glioblastoma cell line supernatant were subjected to ammonium sulfate precipitation. Active fractions were passed over a phenyl Sepharose column and active fractions were then subjected to size exclusion (Superdex 200), followed by ion exchange (MonoS) before Mass Spectroscopy (MS) analysis. (Panel B) Following separation by chromatography, fractions were dialyzed into PBS and cultured with MHD (healthy monocytes) for 18 hours. Whole cell mRNA was reverse transcribed, and induction of MICB and ULBP-1 was analyzed relative to media alone controls. Western blot analysis using a monoclonal antibody to LDH-5 (ab101562) was performed on […] of total protein to confirm the presence of LDH-5 in the active fractions. (Panel C) mRNA isolated from PBMC of healthy donors, 293T cells (as negative controls), and U87, U251, and SF767 glioma cell lines were analyzed for expression of LDHA and LDHB by qPCR. (Panel D) A 1:10 dilution of fresh, unfrozen glioblastoma cell line supernatants was analyzed for total LDH enzymatic activity and expressed as OD 495 nm. (Panel E) Validation of LDH induction of NKG2D ligands in monocytes. Six hundred twenty five U/L of purified, native LDH-5, fresh U87 supernatant, or fresh U87 supernatant in the presence of 100 mM sodium oxamate (NaOx) were cultured with MHD. Eighteen hours later, mRNA was isolated and analyzed for MICA, MICB, and ULBP-1 by qPCR. Values represent induction relative to MHD cultured in media alone. (Panel F) Fresh U87 supernatant, 625 U/L of purified, native LDH-5, LDH-5+0.5 mM Pyruvate (Pyr), or LDH-5+0.5 mM pyruvate and 100 mM NaOx were cultured with MHD. Eighteen hours later, mRNA was isolated and analyzed for MICA, MICB and ULBP-1 by qPCR. Values represent induction relative to MHD cultured in media alone. (Panel G) MHD were cultured with native LDH-5 isolated from liver cells. Eighteen hours later, MICB (black bars) and ULBP-1 (gray bars) were measured by qPCR. (Panel H) Expression of NKG2D and NKp46 on primary human NK cells following a 12 hour incubation with LDH (50 ug/mL) or lactate (20 mM). Cells were surface stained with antibodies directed against CD3, CD56, NKG2D, and NKp46 and analyzed by flow cytometry. The expression level of NKG2D and NKp46 are plotted against CD56. (Panel I) Expression of CD107a on primary human NK cells following IL-2 (1000 U/ml) activation and a 6 hour incubation with LDH (50 ug/mL) or lactate (20 mM). Cells were surface stained with antibodies directed against CD3, CD56, and CD107a and analyzed by flow cytometry. Representative data are shown in the top panels, a summary of percent CD107a+NK cells is shown below. (Panel J) 293T cells were transiently transfected with a pcDNA3.1 (−) vector encoding either LDHA or LDHB, or both constructs. Supernatant was then cultured with CD14-positively selected MHD. Eighteen hours later, MICB and ULBP-1 were measured by qPCR. Values represent induction relative to monocytes cultured in media alone. *P<0.05, **P<0.01.
FIG. 21. Purified native LDH5 or LDH1 was cultured with monocytes from healthy donors. Eighteen hours later, MICB and ULBP-1 were measured by qPCR. Values represent induction relative to monocytes cultured in medium alone. […]

As to `CC(O)C(=O)O` (centres unmarked) [lactate], in assay [1], the “NK cell NKG2D expression or degranulation” value is given as “neither lactate nor LDH-5 alone directly impacted”. “Natural killer group 2, member D (NKG2D) receptor on NK cells (from UniProt P26718 1-216)”: the IFN-γ production by degranulating NK cells in assay [2] and in assay [3] was 20.2% each time. Further, the degranulation of IL-2-activated NK cells in assay [2] and in assay [3] was 75.3% in each case.

`O=C1N=C(NS(=O)(=O)c2cccc3ccccc23)SC1=Cc1ccc(Br)cc1` [Pitstop]: in assay [4] (U87 pre-incubated with 18 uM Pitstop, labeled LDH5 for 30 min), the “LDH5 uptake, effect in words” value is reported as “block LDH5 uptake”. `O=C(N/N=C/c1cc(O)c(O)cc1O)c1cc2ccccc2cc1O` [Dyngo 4a]: in assay [4] (U87 pre-incubated with 30 uM Dyngo 4a, labeled LDH5 for 30 min), the “LDH5 uptake, effect in words” value is on record as “block LDH5 uptake”. On to `CN(C)CCCN1c2ccccc2Sc2ccc(Cl)cc21` [chlorpromazine], for which, in assay [5], the “LDH5 uptake, effect in words” value was “blocks LDH5 uptake”.

On to `NC(=O)C(=O)[O-].[Na+]` [Sodium oxamate, sodium oxamate, reference compound], for which, in assay [6], the “LDH-5 internalization in tumor cells, effect in words” value was “reduces internalization”. Moreover, the “LDH5 uptake, effect in words” value in assay [4] (U87, 20 mM oxamate, 30 min, N=1) is “blocks LDH5 uptake”. Besides, in assay [7], the “Ability of U87 supernatant to induce NKG2D ligands (mRNA) on MHD” value is reported as “significantly reduced”.
